We go through four compounds from ChEMBL document CHEMBL3867437, “Oryzamides A-E, Cyclodepsipeptides from the Sponge-Derived Fungus Nigrospora oryzae PF18” (J Nat Prod, 2016).

Values after ≈ are worked out from the molar mass of the structure shown.

Assay [1] can be described thus: Cytotoxicity against human HeLa cells after 48 hrs by MTT assay. It counts as functional, cell-based.
The test system of assay [2] is Staphylococcus aureus. The assay can be described thus: Antibacterial activity against methicillin-resistant Staphylococcus aureus ATCC 43300 after 24 hrs by spectrophotometric analysis. Format: functional. Conditions: ATCC 43300, 24 h.
Assay [3] has as its system Staphylococcus aureus. Briefly: Antibacterial activity against methicillin-sensitive Staphylococcus aureus ATCC 25923 after 24 hrs by spectrophotometric analysis. Format: functional. Conditions: ATCC 25923, 24 h.
For another assay, the system named is Escherichia coli. Briefly: Antibacterial activity against Escherichia coli ATCC 25922 after 24 hrs by spectrophotometric analysis. It counts as functional. To be noted: ATCC 25922, 24 h.

Broadly, the IC50 is the concentration at which inhibition is half-maximal. The low end stands for inhibition by little substance, the high end for a need for much substance. On to `CCCCCC[C@H](C)[C@@H]1CC(=O)NCC(=O)N[C@@H](C(C)C)C(=O)N[C@H](CC(C)C)C(=O)N[C@@H](C)C(=O)N[C@@H](Cc2ccc(O)cc2)C(=O)O1`, for which the IC50 in assay [1] was 12.4 µM.
The same measure, in the same setting: next, `CCCCCC[C@H](C)[C@@H]1CC(=O)NCC(=O)N[C@@H](C(C)C)C(=O)N[C@H](CC(C)C)C(=O)N[C@@H](C)C(=O)N[C@@H](CC(C)C)C(=O)O1`: 25.7 µM; `CCCCCC[C@H](C)[C@@H]1CC(=O)NCC(=O)N[C@@H](C(C)C)C(=O)N[C@H](CC(C)C)C(=O)N[C@@H](C)C(=O)N[C@@H](CCSC)C(=O)O1`: 31.3 µM.
A word on the MIC: it is the lowest concentration found to suppress growth. A lower MIC goes with inhibition by little substance. Turning to `O=C(N[C@H](CO)[C@H](O)c1ccc([N+](=O)[O-])cc1)C(Cl)Cl` [CHLORAMPHENICOL], the MIC against Staphylococcus aureus [2] stood at 4 µg/mL (≈ 12.4 µM); with Staphylococcus aureus [3] it was 2 µg/mL (≈ 6.19 µM); with Escherichia coli, 2 µg/mL (≈ 6.19 µM).
